Reference: ChEMBL document CHEMBL1201862, “PubChem BioAssay data set” (2004)
Calls of active or inactive are those of the source.

Assays:
[1] = biological target: X-box-binding protein 1 (Homo sapiens, UniProt P17861); assay type: functional, Cricetulus griseus;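 note: confirmatory dose-response counter-screen serving a CHOP assay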
[2] = tested on: J774.A1; assay: Confirmation of image-based Screening Assay for Inhibitors of Phagocytosis. [Related pubchem assays (depositor defined):AID1029, AID1643]; assay type: functional, cell-based; conditions: Mus musculus
[3] = HEK-293T viability loss after treatment – luminescence, T-cell screen hits, cytotoxicity control for TCR NF-kB inhibitor project, dose response (AID 489026); assay type: functional, cell-based;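 note: cells exposed to compound about 14 hours before the viability readout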
[4] = biological target: Neurotensin receptor type 1 (Homo sapiens, UniProt P30989); assay type: functional;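 note: Image-based confirmatory dose-response assay measuring agonist activity at NTR1; NTR1-expressing U2OS osteosarcoma cells imaged for beta-arrestin GFP spot formation; agonist potency where compounds increase beta-arrestin recruitment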
Neurotensin receptor type 1, sequence (P30989 whole entry): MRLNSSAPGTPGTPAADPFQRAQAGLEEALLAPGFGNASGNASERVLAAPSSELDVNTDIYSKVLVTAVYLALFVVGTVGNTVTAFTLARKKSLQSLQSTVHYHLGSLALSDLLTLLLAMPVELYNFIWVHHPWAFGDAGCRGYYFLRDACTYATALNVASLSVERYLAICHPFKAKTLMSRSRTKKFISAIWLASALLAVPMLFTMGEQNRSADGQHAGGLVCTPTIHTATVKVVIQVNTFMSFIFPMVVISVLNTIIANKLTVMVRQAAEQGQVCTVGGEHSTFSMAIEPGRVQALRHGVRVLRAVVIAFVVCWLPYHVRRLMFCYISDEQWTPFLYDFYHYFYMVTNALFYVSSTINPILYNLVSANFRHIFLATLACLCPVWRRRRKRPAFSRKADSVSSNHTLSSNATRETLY

[5] = biological target: T1, Replicative DNA helicase DnaB (Mycobacterium tuberculosis, UniProt P9WMR3); assay: DnaB intein splicing inhibitors, dose response, biochemical, cell-free fluorescence (AID 449749); assay type: functional
T1 sequence (P9WMR3 whole entry): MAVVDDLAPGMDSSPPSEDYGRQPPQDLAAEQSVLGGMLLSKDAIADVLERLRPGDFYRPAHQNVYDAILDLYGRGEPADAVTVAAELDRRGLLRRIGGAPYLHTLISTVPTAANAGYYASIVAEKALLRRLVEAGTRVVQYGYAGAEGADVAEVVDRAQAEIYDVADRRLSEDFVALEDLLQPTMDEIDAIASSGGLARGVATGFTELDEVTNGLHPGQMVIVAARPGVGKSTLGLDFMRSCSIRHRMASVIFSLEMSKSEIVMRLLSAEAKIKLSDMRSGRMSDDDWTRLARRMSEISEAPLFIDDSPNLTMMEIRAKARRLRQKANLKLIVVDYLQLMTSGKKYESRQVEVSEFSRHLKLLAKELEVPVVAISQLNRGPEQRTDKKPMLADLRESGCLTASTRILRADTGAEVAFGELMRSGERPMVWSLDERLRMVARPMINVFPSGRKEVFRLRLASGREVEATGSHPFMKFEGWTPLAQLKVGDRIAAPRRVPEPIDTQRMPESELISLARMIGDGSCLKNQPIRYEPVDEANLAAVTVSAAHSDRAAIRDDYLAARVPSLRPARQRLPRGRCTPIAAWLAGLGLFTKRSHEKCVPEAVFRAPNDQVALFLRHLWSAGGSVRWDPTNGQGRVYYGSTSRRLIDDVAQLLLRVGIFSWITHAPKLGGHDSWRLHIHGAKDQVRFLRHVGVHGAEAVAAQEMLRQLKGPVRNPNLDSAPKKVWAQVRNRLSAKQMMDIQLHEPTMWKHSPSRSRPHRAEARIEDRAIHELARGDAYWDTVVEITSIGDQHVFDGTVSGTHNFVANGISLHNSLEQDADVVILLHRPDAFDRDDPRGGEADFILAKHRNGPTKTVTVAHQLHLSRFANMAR

[6] = biological target: T2, Protein RecA (Mycobacterium tuberculosis, UniProt P9WHJ3); assay: Fluorescence Cell-Free Homogeneous Dose Retest to Identify Inhibitors of RecA-Intein Splicing Activity. [Related pubchem assays (depositor defined):AID2097, AID2223, AID489010, AID492950]; assay type: functional
T2 sequence (P9WHJ3 whole entry): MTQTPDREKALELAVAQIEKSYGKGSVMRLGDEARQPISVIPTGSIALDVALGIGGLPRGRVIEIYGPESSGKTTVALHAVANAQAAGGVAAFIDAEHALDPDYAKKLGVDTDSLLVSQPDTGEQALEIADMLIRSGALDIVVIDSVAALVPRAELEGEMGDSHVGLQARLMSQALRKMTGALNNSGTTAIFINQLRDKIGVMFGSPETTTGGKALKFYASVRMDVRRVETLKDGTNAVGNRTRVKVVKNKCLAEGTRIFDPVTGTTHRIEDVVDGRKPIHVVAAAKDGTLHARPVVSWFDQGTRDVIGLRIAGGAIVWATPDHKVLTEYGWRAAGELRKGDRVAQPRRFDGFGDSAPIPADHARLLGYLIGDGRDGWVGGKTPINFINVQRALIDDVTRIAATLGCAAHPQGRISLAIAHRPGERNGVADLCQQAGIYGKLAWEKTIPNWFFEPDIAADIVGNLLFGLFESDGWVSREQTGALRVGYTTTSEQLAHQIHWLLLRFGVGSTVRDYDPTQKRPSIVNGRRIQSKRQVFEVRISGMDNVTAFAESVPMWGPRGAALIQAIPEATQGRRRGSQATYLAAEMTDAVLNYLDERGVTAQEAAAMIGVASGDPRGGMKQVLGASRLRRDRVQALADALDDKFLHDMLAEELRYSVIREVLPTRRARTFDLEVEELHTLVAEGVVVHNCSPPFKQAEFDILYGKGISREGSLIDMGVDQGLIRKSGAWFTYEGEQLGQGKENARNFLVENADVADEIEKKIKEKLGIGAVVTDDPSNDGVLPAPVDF

[7] = reduction of Shn3 3'UTR-driven luciferase in osteoblasts – cell-based, Clone20 osteoblasts, firefly luciferase, cherry-picked, dose response (AID 624132); assay type: functional;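 note: firefly luciferase luminescence from reporter carrying the Shn3 3'UTR in osteoblasts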
[8] = loss of viability in HepG2 cells – cell-based, CellTiter-Glo, cherry-picked, cytotoxicity control for Shn3 inhibitor project, dose response (AID 624134); assay type: functional
[9] = non-specific 3'UTR reporter inhibition in Clone20-Shn3RL – cell-based, Renilla luciferase, cherry-picked, counter-screen for Shn3 inhibitor project, dose response (AID 624133); assay type: functional
[10] = biological target: Eukaryotic translation initiation factor 4H (Homo sapiens, UniProt Q15056); assay: eIF4H binding inhibition – biochemical, uHTS, fluorescence polarization, translation initiation inhibitor project, primary screen (AID 2012)
[11] = biological target: Polyadenylate-binding protein 1 (Homo sapiens, UniProt P11940); assay: blockers of PABP interaction with poly(A) – biochemical, fluorescence polarization, […] (AID 2014)
Polyadenylate-binding protein 1, sequence (P11940 whole entry): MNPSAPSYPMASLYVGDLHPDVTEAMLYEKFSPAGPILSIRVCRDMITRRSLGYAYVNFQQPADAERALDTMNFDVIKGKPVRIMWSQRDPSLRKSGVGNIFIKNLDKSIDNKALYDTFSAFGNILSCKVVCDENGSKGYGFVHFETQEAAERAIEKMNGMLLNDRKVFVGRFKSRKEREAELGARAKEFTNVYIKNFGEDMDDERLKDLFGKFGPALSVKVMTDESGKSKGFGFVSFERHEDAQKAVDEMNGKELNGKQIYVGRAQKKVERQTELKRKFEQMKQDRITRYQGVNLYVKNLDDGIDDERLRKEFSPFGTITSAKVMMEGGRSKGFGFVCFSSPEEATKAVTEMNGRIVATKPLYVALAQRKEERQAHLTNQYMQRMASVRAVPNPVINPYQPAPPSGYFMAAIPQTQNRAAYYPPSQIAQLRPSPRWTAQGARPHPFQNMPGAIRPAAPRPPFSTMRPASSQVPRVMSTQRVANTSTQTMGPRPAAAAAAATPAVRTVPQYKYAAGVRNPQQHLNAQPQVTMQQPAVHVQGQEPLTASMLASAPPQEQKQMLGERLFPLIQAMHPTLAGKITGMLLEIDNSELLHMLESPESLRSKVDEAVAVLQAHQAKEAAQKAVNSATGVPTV

[12] = luciferase reporter signal suppression in cells – H4 neuroglioma cells, luminescence, dose response (AID 1990); assay type: functional, cell-based
[13] = tested on: BJ; assay: BJ-TERT fibroblast viability loss – cell-based, RAS-independent, luminescence, dose response (AID 1933); assay type: functional; conditions: Homo sapiens
[14] = Luminescence Cell-Based Dose Response HTS to Identify Inhibitors of 5'UTR Stem-Loop Driven Prion Protein mRNA Translation in H4 Neuroglioblastoma Cells. [Related pubchem assays: 1827 (Project Summary), 1813 (Primary HTS)]; assay type: functional
[15] = biological target: T3, Heat shock factor protein 1 (Mus musculus, UniProt P38532); assay: decrease of HSF1-responsive luciferase luminescence – cell-based, NIH3T3, dose retest, confirmation (AID 2382); assay type: functional;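 note: NIH3T3 fibroblasts with HSF1-driven luciferase reporter stressed by proteasome inhibitor MG132; luminescence from HSF1-driven luciferase expression after 8 hours of MG132 stress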
T3 sequence (P38532 whole entry): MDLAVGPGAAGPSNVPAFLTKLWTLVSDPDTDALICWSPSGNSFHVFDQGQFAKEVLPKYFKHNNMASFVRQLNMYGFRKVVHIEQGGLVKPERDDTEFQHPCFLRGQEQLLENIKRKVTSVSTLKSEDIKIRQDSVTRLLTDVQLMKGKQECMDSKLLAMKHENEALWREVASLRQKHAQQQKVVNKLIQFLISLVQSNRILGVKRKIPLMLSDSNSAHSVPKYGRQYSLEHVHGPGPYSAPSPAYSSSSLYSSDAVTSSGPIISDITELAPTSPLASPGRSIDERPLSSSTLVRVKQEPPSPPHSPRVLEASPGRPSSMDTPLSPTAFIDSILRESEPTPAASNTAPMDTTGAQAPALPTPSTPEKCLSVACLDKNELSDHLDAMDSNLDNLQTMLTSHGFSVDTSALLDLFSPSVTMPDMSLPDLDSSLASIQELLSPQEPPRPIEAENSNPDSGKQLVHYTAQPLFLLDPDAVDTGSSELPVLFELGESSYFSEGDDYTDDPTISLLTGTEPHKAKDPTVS

[16] = alpha-synuclein stem-loop luciferase translation blockers – H4 neuroglioma cells, luminescence, confirmation (AID 1988); assay type: functional, cell-based
[17] = tested on: BJ; assay: cells; assay type: functional, cell-based; conditions: Homo sapiens
[18] = tested on: BJ; assay: BJ-TERT-LT-ST fibroblast viability loss – cell-based, RAS-independent, luminescence, dose response (AID 1935); assay type: functional; conditions: Homo sapiens;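 note: BJ fibroblasts immortalized with TERT plus LT and ST oncogenes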
[19] = DRD fibroblast viability loss – cell-based, non-viral oncogenic, luminescence, dose response (AID 1934); assay type: functional; conditions: Homo sapiens
[20] = HGIII-sPLA2 enzyme inhibition potency – biochemical, QFRET, IC50, dose response (AID 743457);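 note: green fluorescence rise as the enzyme cleaves BODIPY PC-A2 in liposomes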
[21] = biological target: DNA dC->dU-editing enzyme APOBEC-3A (Homo sapiens, UniProt P31941); assay: A3A deaminase inhibition for selectivity – biochemical, dose response (AID 504722); assay type: functional
DNA dC->dU-editing enzyme APOBEC-3A, sequence (P31941 whole entry): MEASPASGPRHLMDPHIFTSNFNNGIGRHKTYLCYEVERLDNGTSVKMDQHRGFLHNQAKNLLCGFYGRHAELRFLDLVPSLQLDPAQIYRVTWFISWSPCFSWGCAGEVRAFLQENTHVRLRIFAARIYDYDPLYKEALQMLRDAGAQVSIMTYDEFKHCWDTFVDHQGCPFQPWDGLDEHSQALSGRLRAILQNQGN

[22] = biological target: DNA dC->dU-editing enzyme APOBEC-3G (Homo sapiens, UniProt Q9HC16); assay: Dose Response confirmation of small molecule APOBEC3G DNA Deaminase Inhibitors via a fluorescence-based single-stranded DNA deaminase assay. [Related pubchem assays (depositor defined):AID493012, AID493028]; assay type: functional
DNA dC->dU-editing enzyme APOBEC-3G, sequence (Q9HC16 whole entry): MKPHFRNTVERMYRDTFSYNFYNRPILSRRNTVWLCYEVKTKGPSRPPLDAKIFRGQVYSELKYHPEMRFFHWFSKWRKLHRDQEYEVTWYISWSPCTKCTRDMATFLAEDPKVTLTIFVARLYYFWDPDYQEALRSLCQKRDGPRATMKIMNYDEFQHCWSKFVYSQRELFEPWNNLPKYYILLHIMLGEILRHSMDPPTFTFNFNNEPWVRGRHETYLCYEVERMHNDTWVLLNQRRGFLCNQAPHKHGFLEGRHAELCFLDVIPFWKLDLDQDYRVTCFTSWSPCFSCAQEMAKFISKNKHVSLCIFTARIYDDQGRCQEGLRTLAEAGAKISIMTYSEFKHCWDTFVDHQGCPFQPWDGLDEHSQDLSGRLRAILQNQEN

[23] = biological target: Lysosomal acid glucosylceramidase (Homo sapiens, UniProt P04062); assay: Dose response cell-based high throughput screening assay to identify enhancers of beta-glucosidase activity. [Related pubchem assays: 784 ]; assay type: functional
Lysosomal acid glucosylceramidase, sequence (P04062 whole entry): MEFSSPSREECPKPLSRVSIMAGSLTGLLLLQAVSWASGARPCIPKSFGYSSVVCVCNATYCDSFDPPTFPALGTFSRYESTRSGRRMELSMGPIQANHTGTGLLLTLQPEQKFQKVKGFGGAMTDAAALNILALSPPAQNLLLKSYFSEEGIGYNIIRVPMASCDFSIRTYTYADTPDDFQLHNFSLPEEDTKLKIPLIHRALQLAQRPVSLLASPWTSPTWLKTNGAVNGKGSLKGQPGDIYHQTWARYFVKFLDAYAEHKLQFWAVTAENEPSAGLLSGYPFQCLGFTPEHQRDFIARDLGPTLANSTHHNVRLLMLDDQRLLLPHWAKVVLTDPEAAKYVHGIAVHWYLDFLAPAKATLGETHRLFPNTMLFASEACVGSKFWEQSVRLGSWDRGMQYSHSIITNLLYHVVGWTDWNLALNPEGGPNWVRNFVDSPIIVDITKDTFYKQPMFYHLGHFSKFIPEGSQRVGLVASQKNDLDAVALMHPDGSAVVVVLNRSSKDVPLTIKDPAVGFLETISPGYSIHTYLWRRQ

[24] = biological target: T4, SUMO-activating enzyme (Homo sapiens, UniProt Q9UBT2); assay: blockers of UBC9-mediated SUMO conjugation – biochemical, AlphaScreen, SUMOylation inhibitor project, confirmation (AID 2018); assay type: functional
T4 sequence (Q9UBE0 whole entry): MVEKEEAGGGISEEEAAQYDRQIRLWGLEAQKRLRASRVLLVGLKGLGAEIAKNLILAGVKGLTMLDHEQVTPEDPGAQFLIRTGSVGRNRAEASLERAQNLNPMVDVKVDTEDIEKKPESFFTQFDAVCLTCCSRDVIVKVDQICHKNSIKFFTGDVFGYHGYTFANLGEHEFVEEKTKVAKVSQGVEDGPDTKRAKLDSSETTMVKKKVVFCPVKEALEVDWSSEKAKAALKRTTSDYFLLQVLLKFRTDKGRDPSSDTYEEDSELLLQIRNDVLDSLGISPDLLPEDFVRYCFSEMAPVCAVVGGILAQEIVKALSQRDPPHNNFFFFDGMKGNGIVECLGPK
T4 sequence (Q9UBT2 whole entry): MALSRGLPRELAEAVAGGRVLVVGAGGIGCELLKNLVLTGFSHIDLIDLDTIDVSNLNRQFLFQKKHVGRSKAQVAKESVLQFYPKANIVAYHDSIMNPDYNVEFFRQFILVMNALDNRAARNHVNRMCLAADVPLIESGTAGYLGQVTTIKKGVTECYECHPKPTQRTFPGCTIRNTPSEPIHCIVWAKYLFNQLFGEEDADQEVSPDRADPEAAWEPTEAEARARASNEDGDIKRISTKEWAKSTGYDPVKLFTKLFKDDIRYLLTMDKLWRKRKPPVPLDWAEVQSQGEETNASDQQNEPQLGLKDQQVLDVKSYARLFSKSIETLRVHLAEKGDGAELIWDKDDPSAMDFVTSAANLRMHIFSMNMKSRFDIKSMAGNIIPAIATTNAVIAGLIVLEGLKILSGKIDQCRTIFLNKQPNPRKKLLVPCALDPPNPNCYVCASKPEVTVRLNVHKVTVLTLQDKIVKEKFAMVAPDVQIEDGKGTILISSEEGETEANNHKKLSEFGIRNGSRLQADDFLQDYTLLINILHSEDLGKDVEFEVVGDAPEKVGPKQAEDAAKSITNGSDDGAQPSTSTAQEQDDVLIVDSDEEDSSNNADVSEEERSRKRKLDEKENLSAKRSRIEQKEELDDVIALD

[25] = biological target: T4, SUMO-activating enzyme; assay: blockers of SAE1/SAE2–UBC9 SUMO transfer – biochemical, HTRF, uHTS, primary screen (AID 2006); assay type: protein-complex assay
[26] = biological target: T5, Histone-lysine N-methyltransferase NSD2 (Homo sapiens, UniProt O96028); assay type: biochemical
T5 sequence (O96028 whole entry): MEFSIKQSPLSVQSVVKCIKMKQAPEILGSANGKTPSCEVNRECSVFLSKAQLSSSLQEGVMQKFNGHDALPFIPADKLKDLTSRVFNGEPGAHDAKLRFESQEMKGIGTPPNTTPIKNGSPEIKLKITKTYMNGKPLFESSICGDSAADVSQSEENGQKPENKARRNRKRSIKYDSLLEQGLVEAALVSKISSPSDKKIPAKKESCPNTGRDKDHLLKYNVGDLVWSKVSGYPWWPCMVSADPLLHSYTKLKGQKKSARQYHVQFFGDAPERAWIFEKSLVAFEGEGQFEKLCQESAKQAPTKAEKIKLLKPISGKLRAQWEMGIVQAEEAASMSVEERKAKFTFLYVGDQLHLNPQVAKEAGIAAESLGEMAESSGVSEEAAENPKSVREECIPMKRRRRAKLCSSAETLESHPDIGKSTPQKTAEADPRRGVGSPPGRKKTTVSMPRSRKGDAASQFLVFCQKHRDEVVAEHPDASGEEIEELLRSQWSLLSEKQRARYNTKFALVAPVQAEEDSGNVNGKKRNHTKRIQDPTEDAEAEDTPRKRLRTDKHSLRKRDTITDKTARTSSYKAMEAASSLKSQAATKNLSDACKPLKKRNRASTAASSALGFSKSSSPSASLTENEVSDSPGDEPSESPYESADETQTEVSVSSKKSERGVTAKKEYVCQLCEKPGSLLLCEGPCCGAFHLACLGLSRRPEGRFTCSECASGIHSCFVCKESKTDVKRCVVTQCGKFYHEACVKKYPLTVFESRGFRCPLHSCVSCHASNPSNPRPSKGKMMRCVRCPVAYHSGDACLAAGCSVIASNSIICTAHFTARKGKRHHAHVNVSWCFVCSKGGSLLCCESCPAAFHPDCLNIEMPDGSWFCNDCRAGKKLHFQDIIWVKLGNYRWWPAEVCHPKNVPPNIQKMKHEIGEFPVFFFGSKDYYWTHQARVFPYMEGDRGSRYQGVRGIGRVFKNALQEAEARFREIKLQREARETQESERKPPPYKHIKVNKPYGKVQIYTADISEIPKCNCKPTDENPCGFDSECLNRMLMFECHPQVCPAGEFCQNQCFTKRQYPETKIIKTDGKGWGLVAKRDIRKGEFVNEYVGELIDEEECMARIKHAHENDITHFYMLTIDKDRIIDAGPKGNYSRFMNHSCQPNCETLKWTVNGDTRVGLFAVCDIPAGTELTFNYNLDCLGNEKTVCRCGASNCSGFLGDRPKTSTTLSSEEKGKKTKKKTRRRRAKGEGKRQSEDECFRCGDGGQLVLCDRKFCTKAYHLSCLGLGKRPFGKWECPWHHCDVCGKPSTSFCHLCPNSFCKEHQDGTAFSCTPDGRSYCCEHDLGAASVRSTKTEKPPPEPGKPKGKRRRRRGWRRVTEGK

X-box-binding protein 1, sequence (P17861 whole entry): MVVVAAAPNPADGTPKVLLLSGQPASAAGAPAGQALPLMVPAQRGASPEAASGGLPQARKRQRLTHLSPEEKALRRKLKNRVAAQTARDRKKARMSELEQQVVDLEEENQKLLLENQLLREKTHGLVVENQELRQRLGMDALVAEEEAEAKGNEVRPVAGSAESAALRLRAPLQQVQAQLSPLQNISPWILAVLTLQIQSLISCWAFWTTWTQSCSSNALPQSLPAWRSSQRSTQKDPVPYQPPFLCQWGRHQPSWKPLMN

CCOc1ccc(N/C=C2/C(=O)NC(=O)N(C(C)(C)C)C2=O)cc1
Absolute IC50 (XBP1) [1]: 10 µM

CC(C)Oc1ccccc1C1CC(=O)Nc2cc3c(cc21)OCO3 (stereo not drawn)
IC50 [2]: > 25 µM (inactive) | IC50 [3]: > 80 µM (inactive)

CC(CCc1ccccc1)NC(=O)COC(=O)c1ccc(S(C)(=O)=O)c([N+](=O)[O-])c1 (stereo not drawn)
EC50 [4]: 9.29 µM (active) | AC50 [5]: 10 µM (active) | EC50 [6]: 3.7 µM (active) | AC50 [7]: 3.34 µM (active) | AC50 [8]: 39.4 µM (active) | AC50 [9]: 9.93 µM (active)

CCC(C)Sc1nc2c(c(=O)[nH]c(=O)n2C)n1Cc1ccc(Cl)cc1 (stereo not drawn)
Absolute IC50 (XBP1) [1]: 10 µM

O=C(NCC(=O)N1CCN(c2ccccc2O)CC1)c1ccc2c(c1)OCO2
IC50 [10]: 28.2 µM (active) | IC50 [11]: > 100 µM (inactive)

CCOc1cc(CNc2ccc3c(c2)OCCO3)cc(Br)c1OCC
EC50 [12]: 8.47 µM (inconclusive) | EC50 [13]: 1.85 µM (active) | EC50 [14]: > 120 µM (not active) | EC50 [15]: 2.48 µM (active) | EC50 [16]: 1.58 µM (active) | EC50 [17]: 15.6 µM (active) | IC50 [2]: 2.51 µM (active) | EC50 [18]: 2.43 µM (inconclusive) | EC50 [19]: 1.6 µM (active) | IC50 [20]: > 122 µM (inactive)

Cc1cc(-c2nnc(S)n2/N=C/C=C/c2ccccc2)[nH]n1
IC50 [21]: > 100 µM (inactive) | IC50 [22]: 2.35 µM (active)

CC(OC(=O)c1nsc(Cl)c1Cl)C(=O)NCc1cccs1 (stereo not drawn)
EC50 [23]: > 50 µM (not active)

COc1cc2c(C#N)c(N3CCCC3)nc(N)c2c(N)n1
IC50 [24]: 5.34 µM (active) | IC50 [25]: 3.79 µM (active) | AC50 [26]: 9.62 µM (active)
